Assays:
[1] = molecular target: androgen receptor of LNCaP prostate tumor cells (Homo sapiens, UniProt P10275, T878A); settings: cited from earlier work
LNCaP cells = experiment: Expression of pCMV-beta (lacZ) DNA in LNCaP cells, X-gal blue staining, number of blue cells per culture plate; type: cell-based, human; settings: DHT-poly-L-lysine alone, no DNA; 48 hours incubation
Description: DHT poly-L-lysine as described in Example 1 was dialyzed against tris-EDTA buffer pH=7 (“HMW-D”) or purified by gel filtration column chromatography (“HMW-2=fraction #2 of the column, HMW-9=fraction 9 of the column). Protein concentrations of reaction products and column fractions were determined by the coomassie blue method. DHT-poly-L-lysine at amounts from 0.05 micrograms to 12.5 micrograms were mixed with pCMV-beta DNA expression construct containing the lacZ gene driven by the CMV immediate early promoter/enhancer in a pVC19 backbone, in amounts from 3 to 50 micrograms in 100 microliters of water at room temperature for one hour with vortex mixing every 15 minutes.
The reaction products of Example 2 were added to 1-3 ml of tissue culture media supplemented with 10% fetal bovine serum and filtered through 0.2 micron filter and added to subconfluent cultures of LNCaP cells growing on glass slides. Cells were incubated at 37 degrees C. 5% CO2 for 48 hours. Next, adherent cells were washed with phosphate buffered saline (PBS) and fixed with 2% paraformaldelyde in 0.1 M NaPO4 buffer pH=7.4 for 45 min. to one hour. Fixative was aspirated and cells rinsed with PBS and X-gal stain was applied. […] Each culture plate was scored for the number of cells which turned blue.

Sequence of androgen receptor of LNCaP prostate tumor cells (P10275 whole entry T878A): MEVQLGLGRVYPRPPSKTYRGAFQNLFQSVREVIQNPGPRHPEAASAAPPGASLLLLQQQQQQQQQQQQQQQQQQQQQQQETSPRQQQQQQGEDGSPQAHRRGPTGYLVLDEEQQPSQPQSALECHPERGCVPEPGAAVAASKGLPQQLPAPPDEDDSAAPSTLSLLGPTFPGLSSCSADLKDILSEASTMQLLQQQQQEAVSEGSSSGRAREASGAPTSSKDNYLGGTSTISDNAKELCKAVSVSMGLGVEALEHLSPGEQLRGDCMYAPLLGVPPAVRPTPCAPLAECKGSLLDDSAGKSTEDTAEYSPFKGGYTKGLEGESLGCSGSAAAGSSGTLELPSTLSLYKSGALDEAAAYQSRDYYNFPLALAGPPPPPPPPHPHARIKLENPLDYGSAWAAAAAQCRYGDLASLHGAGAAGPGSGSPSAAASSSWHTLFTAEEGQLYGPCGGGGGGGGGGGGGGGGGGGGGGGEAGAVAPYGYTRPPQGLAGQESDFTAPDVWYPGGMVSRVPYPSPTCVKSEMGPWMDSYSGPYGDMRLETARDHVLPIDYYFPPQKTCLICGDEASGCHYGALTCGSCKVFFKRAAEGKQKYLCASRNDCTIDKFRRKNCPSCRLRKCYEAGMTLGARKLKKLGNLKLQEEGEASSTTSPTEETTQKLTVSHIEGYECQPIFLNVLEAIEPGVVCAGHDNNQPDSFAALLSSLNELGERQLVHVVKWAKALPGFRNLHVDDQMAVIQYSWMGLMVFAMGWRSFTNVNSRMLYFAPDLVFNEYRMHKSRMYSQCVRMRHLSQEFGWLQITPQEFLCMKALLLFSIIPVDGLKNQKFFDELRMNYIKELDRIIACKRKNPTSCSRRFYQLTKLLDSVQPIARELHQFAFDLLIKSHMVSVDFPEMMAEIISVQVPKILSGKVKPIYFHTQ

Compound | Relative binding affinities for the androgen receptor [1] | positive (blue-stained) cells (LNCaP cells)
C[C@]1(O)CC[C@H]2[C@@H]3CCC4=CC(=O)CCC4=C3C=C[C@@]21C [R1881, 17β-hydroxy-17α-methyl-estra-4,9,11-trien-3-one] | 100 | –
DHT-poly-L-lysine HBr | – | no positive cells

— US6468981B1, “Compositions and methods for targeting pharmaceutically active materials to cells containing androgen receptors” (Emory University, priority 1994, dated 2002)
